Earlier results on one molecule are cited in patent publication US20080044815A1, “Genetic Screen for Interaction Interface Mapping” (priority 2003, published 2008).

In data set [1] the test system is nerve growth factor (NGF)-deprived neurons. The following applies: Harris et al. 2002.
Data set [2] has as its system embryonic neurons. The following applies: Borasio et al. 1998.
Data set [3] relates to neurons. As to conditions: Saporito et al. 1999.

Structures are written as SMILES.

`CCSCc1ccc2c(c1)c1c3c(c4c5cc(CSCC)ccc5n5c4c1n2[C@H]1C[C@](O)(C(=O)OC)[C@]5(C)O1)CNC3=O` [CEP-1347]: in data set [1], the “metabolism and growth of NGF-deprived neurons” value was “preserve the metabolism and growth”. The “survival of embryonic neurons” value in data set [2] is given as “support the survival of embryonic neurons”. Also, in data set [3], the “loss of neurons in vivo” value was “attenuate the loss of neurons in vivo”.
